# Source: the SangsterLogP compilation
row,SMILES,logP
1,Cc1cccc(-c2ccc3cccn3c2)c1,4.87
2,c1ccc(-c2cc3ccccn3c2)cc1,4.29
3,Clc1cccc(-c2cc3ccccn3c2)c1,5.14
4,Brc1cccc(-c2cc3ccccn3c2)c1,5.31
5,c1ccn2cccc2c1,2.49

# Continued, values first:
row,logP,SMILES
1,4.2,COc1ccc(-c2cc3ccccn3c2)cc1
2,4.14,COc1cccc(-c2cc3ccccn3c2)c1
3,5.2,Clc1ccc(-c2cc3ccccn3c2)cc1
4,4.96,Cc1ccc(-c2cc3ccccn3c2)cc1
5,5.43,Brc1ccc(-c2cc3ccccn3c2)cc1
